# Source: USRE48711E1, “Apoptosis signal-regulating kinase inhibitors” (Gilead Sciences, Inc., priority 2009, dated 2021)
# Target: ASK1 (Apoptosis Signal-Regulating Kinase 1) (Homo sapiens (Human), UniProt Q99683)
# Test: ASK1 (Apoptosis Signal-Regulating Kinase 1) TR-FRET Kinase Assay (Biochemical IC50)
# Conditions: TR-FRET, biotin-MBP substrate, 20 min pre-incubation, ATP added as 300 μM solution
# Sequence of ASK1 (Apoptosis Signal-Regulating Kinase 1) (Q99683 649-946): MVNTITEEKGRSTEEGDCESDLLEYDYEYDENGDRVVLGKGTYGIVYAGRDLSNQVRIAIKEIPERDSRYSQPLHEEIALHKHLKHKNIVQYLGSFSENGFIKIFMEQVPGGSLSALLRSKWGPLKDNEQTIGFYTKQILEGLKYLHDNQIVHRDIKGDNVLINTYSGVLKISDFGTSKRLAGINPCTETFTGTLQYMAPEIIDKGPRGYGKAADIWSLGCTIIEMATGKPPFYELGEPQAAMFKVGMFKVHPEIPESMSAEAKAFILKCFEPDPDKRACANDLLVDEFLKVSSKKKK
row,Structure (SMILES),IC50
1,"Cc1c(C(=O)Nc2cccc(-c3nncn3C3CC3)n2)cccc1-n1cnc(C2CC2)c1 [Example 196, 3-(4-cyclopropyl-1H-imidazol-1-yl)-N-(6-(4-cyclopropyl-4H-1,2,4-triazol-3-yl)pyridin-2-yl)-2-methylbenzamide]",1260 nM
2,"Cc1ccc(-n2cnc(C3CC3)c2)cc1C(=O)Nc1cccc(-c2nncn2C2CC2)n1 [Example 197, 5-(4-cyclopropyl-1H-imidazol-1-yl)-N-(6-(4-cyclopropyl-4H-1,2,4-triazol-3-yl)pyridin-2-yl)-2-methylbenzamide]",47 nM
3,"Cc1ccc(C(=O)Nc2cccc(-c3nncn3C3CC3)n2)cc1-n1cnc(C2CC2)c1 [Example 200, 3-(4-cyclopropyl-1H-imidazol-1-yl)-N-(6-(4-cyclopropyl-4H-1,2,4-triazol-3-yl)pyridin-2-y1)-4-methylbenzamide]",11 nM
4,"CC(C)(O)c1ccc(-c2cccc(C(=O)Nc3cccc(-c4nncn4C4CC4)n3)c2)cn1 [Example 204, N-(6-(4-cyclopropyl-4H-1,2,4-triazol-3-yl)pyridin-2-yl)-3-(6-(2-hydroxypropan-2-yl)pyridin-3-yl)benzamide]",17 nM
5,"Cc1ncn(-c2cccc(C(=O)Nc3cccc(-c4nncn4C4CC4)n3)c2)c1C [Example 211, N-(6-(4-cyclopropyl-4H-1,2,4-triazol-3-yl)pyridin-2-yl)-3-(4,5-dimethyl-1H-imidazol-1-yl)benzamide]",9 nM
6,"O=C(Nc1cccc(-c2nncn2C2CC2)n1)c1cccc(-n2cnc3c2CCCC3)c1 [Example 212, N-(6-(4-cyclopropyl-4H-1,2,4-triazol-3-yl)pyridin-2-yl)-3-(4,5,6,7-tetrahydro-1H-benzo[d]imidazol-1-yl)benzamide]",9 nM
7,"Cc1c(C(=O)O)ncn1-c1cccc(C(=O)Nc2cccc(-c3nncn3C3CC3)n2)c1 [Example 213, 1-(3-(6-(4-cyclopropyl-4H-1,2,4-triazol-3-yl)pyridin-2-ylcarbamoyl)phenyl)-5-methyl-1H-imidazole-4-carboxylic acid]",11 nM
8,"C[C@@H](c1ccccc1)n1cnnc1-c1cccc(NC(=O)c2cccc(-n3cnc(C4CC4)c3)c2)n1 [Example 214, (S)-3-(4-cyclopropyl-1H-imidazol-1-yl)-N-(6-(4-(1-phenylethyl)-4H-1,2,4-triazol-3-yl)pyridin-2-yl)benzamide]",159 nM
9,"Cc1cnc(C(=O)Nc2cccc(-c3nncn3C3CC3)n2)cc1-c1ccc(C2CC2)nc1 [Example 215, 6-cyclopropyl-N-(6-(4-cyclopropyl-4H-1,2,4-triazol-3-yl)pyridin-2-yl)-5′-methyl-3,4′-bipyridine-2′-carboxamide]",30 nM
10,"Cc1ncn(-c2cccc(C(=O)Nc3cccc(-c4nncn4[C@@H](C)C(F)(F)F)n3)c2)c1C [Example 216, (S)-3-(4,5-dimethyl-1H-imidazol-1-yl)-N-(6-(4-(1,1,1-trifluoropropan-2-yl)-4H-1,2,4-triazol-3-yl)pyridin-2-yl)benzamide]",8 nM

# Results, then the compound that gave them:
row,IC50,Structure (SMILES)
1,7 nM,"O=C(Nc1cccc(-c2nncn2C2CC2)n1)c1cccc(-n2cnc(C3CC3)c2)c1 [Example 192, 3-(4-cyclopropyl-1H-imidazol-1-yl)-N-(6-(4-cyclopropyl-4H-1,2,4-triazol-3-yl)pyridin-2-yl)benzamide]"
2,5 nM,"CC(C)c1cn(-c2cccc(C(=O)Nc3cccc(-c4nncn4C4CC4)n3)c2)cn1 [Example 193, N-(6-(4-cyclopropyl-4H-1,2,4-triazol-3-yl)pyridin-2-yl)-3-(4-isopropyl-1H-imidazol-1-yl)benzamide]"
3,12 nM,"O=C(Nc1cccc(-c2nncn2C2CC2)c1)c1cc(-n2cnc3c2CCNC3C(F)(F)F)ccn1 (stereo not drawn) [Example 194, N-(3-(4-cyclopropyl-4H-1,2,4-triazol-3-yl)phenyl)-4-(4-(trifluoromethyl)-4,5,6,7-tetrahydro-1H-imidazo[4,5-c]pyridin-1-yl)picolinamide]"
4,8 nM,"O=C(Nc1cccc(-c2nncn2C2CC2)n1)c1cc(-n2cnc3c2CCNC3C(F)(F)F)ccn1 (stereo not drawn) [Example 195, N-(6-(4-cyclopropyl-4H-1,2,4-triazol-3-yl)pyridin-2-yl)-4-(4-(trifluoromethyl)-4,5,6,7-tetrahydro-1H-imidazo[4,5-c]pyridin-1-yl)picolinamide]"
5,19 nM,"O=C(Nc1cccc(-c2nncn2C2CC2)c1)c1cc(-n2cnc(C(F)(F)C(F)(F)F)c2)ccn1 [Example 198, N-(3-(4-cyclopropyl-4H-1,2,4-triazol-3-yl)phenyl)-4-(4-(perfluoroethyl)-1H-imidazol-1-yl)picolinamide]"
6,9 nM,"O=C(Nc1cccc(-c2nncn2C2CC2)n1)c1cc(-n2cnc(C(F)(F)C(F)(F)F)c2)ccn1 [Example 199, N-(6-(4-cyclopropyl-4H-1,2,4-triazol-3-yl)pyridin-2-yl)-4-(4-(perfluoroethyl)-1H-imidazol-1-yl)picolinamide]"
7,14 nM,"O=C(Nc1cccc(-c2nncn2C2CC2)n1)c1cc(-n2cnc(C3CC3)n2)ccn1 [Example 201, 4-(3-cyclopropyl-1H-1,2,4-triazol-1-yl)-N-(6-(4-cyclopropyl-4H-1,2,4-triazol-3-yl)pyridin-2-yl)picolinamide]"
8,17 nM,"O=C(Nc1cccc(-c2nncn2C2CC2)c1)c1cc(-n2cnc(C3CC3)n2)ccn1 [Example 202, 4-(3-cyclopropyl-1H-1,2,4-triazol-1-yl)-N-(3-(4-cyclopropyl-4H-1,2,4-triazol-3-yl)phenyl)picolinamide]"
9,538 nM,"O=C(Nc1cccc(-c2nncn2C2CC2)c1)c1cc(-n2ncnc2C2CC2)ccn1 [Example 203, 4-(5-cyclopropyl-1H-1,2,4-triazol-1-yl)-N-(3-(4-cyclopropyl-4H-1,2,4-triazol-3-yl)phenyl)picolinamide]"
10,9 nM,"O=C(Nc1cccc(-c2nncn2C2CC2)n1)c1cc(F)cc(-n2cnc(C3CC3)c2)c1 [Example 205, 3-(4-cyclopropyl-1H-imidazol-1-yl)-N-(6-(4-cyclopropyl-4H-1,2,4-triazol-3-yl)pyridin-2-yl)-5-fluorobenzamide]"
11,9 nM,"O=C(Nc1cccc(-c2nncn2C2CC2)c1)c1cc(-n2cnc(C(O)C(F)(F)F)c2)ccn1 (stereo not drawn) [Example 206, N-(3-(4-cyclopropyl-4H-1,2,4-triazol-3-yl)phenyl)-4-(4-(2,2,2-trifluoro-1-hydroxyethyl)-1H-imidazol-1-yl)picolinamide]"
12,11 nM,"O=C(Nc1cccc(-c2nncn2C2CC2)n1)c1cc(-n2cnc(C(O)C(F)(F)F)c2)ccn1 (stereo not drawn) [Example 207, N-(6-(4-cyclopropyl-4H-1,2,4-triazol-3-yl)pyridin-2-yl)-4-(4-(2,2,2-trifluoro-1-hydroxyethyl)-1H-imidazol-1-yl)picolinamide]"
13,5 nM,"O=C(Nc1cccc(-c2nncn2C2CC2)n1)c1cccc(-n2cnc(C(O)C(F)(F)F)c2)c1 (stereo not drawn) [Example 208, N-(6-(4-cyclopropyl-4H-1,2,4-triazol-3-yl)pyridin-2-yl)-3-(4-(2,2,2-trifluoro-1-hydroxyethyl)-1H-imidazol-1-yl)benzamide]"
14,7 nM,"Cc1cc(C(=O)Nc2cccc(-c3nncn3C3CC3)n2)cc(-n2cnc(C3CC3)c2)c1 [Example 209, 3-(4-cyclopropyl-1H-imidazol-1-yl)-N-(6-(4-cyclopropyl-4H-1,2,4-triazol-3-yl)pyridin-2-yl)-5-methylbenzamide]"
